{"source": "paper PMC4240915", "about": "“Insights into the posttranslational assembly of the Mo-, S- and Cu-containing cluster in the active site of CO dehydrogenase of Oligotropha carboxidovorans” (Journal of Biological Inorganic Chemistry, 2014)", "key": {"[1]": {"biological_target": "T1, CO dehydrogenase (FAD site on CoxM) (Afipia carboxidovorans, UniProt P19920)", "T1 construct": "native enzyme purified from wild-type O. carboxidovorans OM5; same complex as P1, as isolated with [CuSMoO2] cluster; with Carbon monoxide dehydrogenase large chain; Carbon monoxide dehydrogenase small chain", "T1 sequence (P19920 1-288)": "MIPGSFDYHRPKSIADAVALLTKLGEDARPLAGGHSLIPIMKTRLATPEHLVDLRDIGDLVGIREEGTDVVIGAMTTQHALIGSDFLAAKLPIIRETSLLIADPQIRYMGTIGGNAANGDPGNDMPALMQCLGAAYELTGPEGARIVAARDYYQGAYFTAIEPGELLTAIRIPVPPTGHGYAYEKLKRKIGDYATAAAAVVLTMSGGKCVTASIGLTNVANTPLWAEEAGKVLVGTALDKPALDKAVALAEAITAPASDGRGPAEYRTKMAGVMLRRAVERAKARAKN", "T1 sequence (P19919 1-809 partner)": "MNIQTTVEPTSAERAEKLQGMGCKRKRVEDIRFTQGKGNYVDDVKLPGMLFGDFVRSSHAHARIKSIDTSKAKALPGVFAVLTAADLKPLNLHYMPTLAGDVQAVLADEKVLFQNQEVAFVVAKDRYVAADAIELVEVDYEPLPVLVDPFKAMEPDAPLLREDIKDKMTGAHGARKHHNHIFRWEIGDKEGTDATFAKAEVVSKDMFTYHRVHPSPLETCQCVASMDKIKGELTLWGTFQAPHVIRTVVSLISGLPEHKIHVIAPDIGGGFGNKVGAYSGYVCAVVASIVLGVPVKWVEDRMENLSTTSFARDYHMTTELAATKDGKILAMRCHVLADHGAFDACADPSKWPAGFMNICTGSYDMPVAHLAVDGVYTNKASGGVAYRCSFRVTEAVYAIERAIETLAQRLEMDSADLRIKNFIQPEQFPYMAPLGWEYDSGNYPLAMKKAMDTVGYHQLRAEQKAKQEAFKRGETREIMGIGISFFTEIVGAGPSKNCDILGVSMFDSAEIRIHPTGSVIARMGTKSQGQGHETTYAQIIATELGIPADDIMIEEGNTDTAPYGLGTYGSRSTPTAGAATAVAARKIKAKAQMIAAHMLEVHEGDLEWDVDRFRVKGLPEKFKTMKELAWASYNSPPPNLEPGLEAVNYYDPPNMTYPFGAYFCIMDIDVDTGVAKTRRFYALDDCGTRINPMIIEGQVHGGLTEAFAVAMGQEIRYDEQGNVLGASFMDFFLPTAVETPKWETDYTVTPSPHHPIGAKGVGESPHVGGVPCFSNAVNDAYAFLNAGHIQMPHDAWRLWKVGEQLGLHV", "T1 sequence (P19921 1-166 partner)": "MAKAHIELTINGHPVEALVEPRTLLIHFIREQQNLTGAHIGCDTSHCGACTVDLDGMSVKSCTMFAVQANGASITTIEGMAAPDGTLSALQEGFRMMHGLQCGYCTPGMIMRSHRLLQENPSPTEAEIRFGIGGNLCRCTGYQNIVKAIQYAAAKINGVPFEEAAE", "assay": "spectrophotometric FAD determination at […] nm after trichloroacetic acid precipitation", "format": "binding", "settings": "wild-type enzyme from CO-grown cells; co-purified cofactor"}, "[2]": {"biological_target": "T1, CO dehydrogenase (FAD site on CoxM)", "assay": "photometric assay of CO oxidation with INT as electron acceptor", "format": "biochemical", "settings": "electron acceptor with CO as electron donor, 30 °C; acceptor site (FAD) not shown in the paper"}, "[3]": {"biological_target": "T2, CO dehydrogenase (molybdenum site on CoxL) (Afipia carboxidovorans, UniProt P19919)", "T2 construct": "native enzyme purified from O. carboxidovorans OM5; Mo-, Fe-S- and FAD-containing; Cu and sulfane sulfur removed by KCN, then resulfurated to the [MoO2S] form (copper-free); with Carbon monoxide dehydrogenase medium chain; Carbon monoxide dehydrogenase small chain", "T2 sequence (P19919 1-809)": "T1 sequence (P19919 1-809 partner)", "T2 sequence (P19921 1-166 partner)": "T1 sequence (P19921 1-166 partner)", "T2 sequence (P19920 1-288 partner)": "T1 sequence (P19920 1-288)", "assay": "Mo(V) EPR at […] K", "format": "binding", "settings": "15 mM ligand, 50 mM HEPES pH 7.2, N2, 25 min room temperature; resulfurated copper-free [MoO2S] enzyme; covalent (mixed disulfide at Mo-bound sulfur)"}}}
{"smiles": "Cc1cc2nc3c(=O)[nH]c(=O)nc-3n(C[C@H](O)[C@H](O)[C@H](O)COP(=O)(O)OP(=O)(O)OC[C@H]3O[C@@H](n4cnc5c(N)ncnc54)[C@H](O)[C@@H]3O)c2cc1C", "note": "[FAD]", "values": [{"measurement": "Wild type (CO)", "setting": "[1]", "value": "1.93 ± 0.08", "unit": "mol per mol"}]}
{"smiles": "O=[N+]([O-])c1ccc(-[n+]2nc(-c3ccccc3)nn2-c2ccc(I)cc2)cc1", "note": "[INT, 1-phenyl-2-(4-iodo-phenyl)-3-(4-nitrophenyl)-2H-tetrazolium chloride]", "values": [{"measurement": "photometric assay of CO oxidation with INT as electron acceptor", "setting": "[2]", "value": "CO-oxidizing activity was assayed photometrically employing INT"}]}
{"smiles": "N[C@@H](CS)C(=O)O", "note": "[L-cysteine]", "values": [{"measurement": "Mo(V) EPR at 120 K", "setting": "[3]", "value": "SH group of the studied sulfur compounds can bind to the equatorial sulfur of [MoO2S]"}]}
